Counter-ions that a name gives are not always drawn. Values belong to the compound of their own block, whether it stands above or below them.
Legend:
PAE UFR48 = test: Fractional Inhibitory Concentration Index, checkerboard assay; format: cell-based, P. aeruginosa
Description: (§1) Method 2: Determination of the Fractional Inhibitory Concentration Index
(§2) Serial 2-fold dilutions of each antibiotic tested were prepared in ca-MHB and mixed in each well of a 96-well microtiter plate so that each row (and column) contained a fixed amount of one agent and increasing amounts of the second agent. The range of drug concentrations used in the checkerboard analysis was such that the dilution range encompassed the MIC for each drug used in the analysis. Broth microdilution plates were inoculated with each strain (Table 3) to yield 5.10^5 CFU/mL in a 100 μL final volume and incubated for 18 h at 35° C. in ambient air. Assays including Fosfomycin were supplemented with 25 μg/ml of Glucose-6-phosphate. MICs were determined after overnight incubation, and the fractional inhibitory concentration (FIC) index was calculated for each well. The FIC index (FICI) was calculated for each combination according to the equation FICI=FICa+FICb=(MIC of drug A in combination/MIC of drug A alone)+(MIC of drug B in combination/MIC of drug B alone). The FICI was interpreted as follows: synergy, FICI […]; indifference, 0.5<FIC<4; and antagonism, FICI>4. The checkerboard assays were performed in duplicate.

PAE UFR90 = test: as above; format: cell-based, P. aeruginosa
Description: as §1, §2

KPN UFR68 = test: as above; format: cell-based, K. pneumoniae
Description: as §1, §2

ECL P99 = test: as above; format: cell-based, E. cloacae
Description: as §1, §2

ECO 190317 = test: as above; format: cell-based, E. coli
Description: as §1, §2

ABA 107292 = test: MIC, broth microdilution (CLSI), substance alone or ATB combined with compound at 4 or 8 μg/mL; format: cell-based, A. baumannii; conditions: Acinetobacter baumannii, substance alone, read-out: MIC
Outline: (§3)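 Growth inhibition endpoint, read visually after 16-20 h at 35° C in ambient air. Cation-adjusted Mueller-Hinton broth, inoculum 5·10^5 CFU/mL, CLSI M7-A7 protocol.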

ABA 19606 = test: as above; format: cell-based, A. baumannii; conditions: Acinetobacter baumannii, substance alone, read-out: MIC
Outline: as §3

ABA UFR151 = test: as above; format: cell-based, A. baumannii; conditions: Acinetobacter baumannii, substance alone, read-out: MIC
Outline: as §3

ABA UFR152 = test: as above; format: cell-based, A. baumannii; conditions: Acinetobacter baumannii, substance alone, read-out: MIC
Outline: as §3

ABA UFR153 = test: as above; format: cell-based, A. baumannii; conditions: Acinetobacter baumannii, substance alone, read-out: MIC
Outline: as §3

ABA UFR156 = test: as above; format: cell-based, A. baumannii; conditions: Acinetobacter baumannii, substance alone, read-out: MIC
Outline: as §3

ABA UFR157 = test: as above; format: cell-based, A. baumannii; conditions: Acinetobacter baumannii, substance alone, read-out: MIC
Outline: as §3

ABA UFR158 = test: as above; format: cell-based, A. baumannii; conditions: Acinetobacter baumannii, substance alone, read-out: MIC
Outline: as §3

ABA UFR159 = test: as above; format: cell-based, A. baumannii; conditions: Acinetobacter baumannii, substance alone, read-out: MIC
Outline: as §3

ABA UFR160 = test: as above; format: cell-based, A. baumannii; conditions: Acinetobacter baumannii, substance alone, read-out: MIC
Outline: as §3

ABA UFR161 = test: as above; format: cell-based, A. baumannii; conditions: Acinetobacter baumannii, substance alone, read-out: MIC
Outline: as §3

Compound: NC[C@@H]1CC(=NOCC(N)=O)[C@@H]2CN1C(=O)N2OS(=O)(=O)[O-].O=C(O)C(F)(F)F.[Na+] [Example 4, 2,2,2-trifluroacetate and sodium [(2S,5S)-4-(2-amino-2-oxo-ethoxy)imino-2-(azaniumylmethyl)-7-oxo-1,6-diazabicyclo[3.2.1]octan-6-yl] sulfate]
- FIC index min (PAE UFR48; compound +ATM): 0.50
- FIC index min (PAE UFR48; compound +FEP): 0.63
- FIC index min (PAE UFR48; compound +FOS): 1.20
- FIC index min (PAE UFR48; compound +MEM): 0.63
- FIC index min (PAE UFR48; compound +PIP): 0.44
- FIC index min (PAE UFR90; compound +ATM): 0.53
- FIC index min (PAE UFR90; compound +FEP): 0.63
- FIC index min (PAE UFR90; compound +FOS): 0.63
- FIC index min (PAE UFR90; compound +MEM): 1.0
- FIC index min (PAE UFR90; compound +PIP): 0.75
- FIC index min (KPN UFR68; compound +ATM): ≤0.023
- FIC index min (KPN UFR68; compound +FEP): ≤0.006
- FIC index min (KPN UFR68; compound +FOS): ≤0.035
- FIC index min (KPN UFR68; compound +MEM): ≤0.023
- FIC index min (KPN UFR68; compound +PIP): ≤0.063
- FIC index min (ECL P99; compound +ATM): 0.63
- FIC index min (ECL P99; compound +FEP): 0.44
- FIC index min (ECL P99; compound +FOS): ≤0.25
- FIC index min (ECL P99; compound +MEM): 0.44
- FIC index min (ECL P99; compound +PIP): 0.56
- FIC index min (ECO 190317; compound +ATM): 0.57
- FIC index min (ECO 190317; compound +FEP): 0.31
- FIC index min (ECO 190317; compound +FOS): 0.53
- FIC index min (ECO 190317; compound +MEM): 0.87
- FIC index min (ECO 190317; compound +PIP): ≤0.74

- MIC (ABA 107292): > 32 µg/mL
- MIC (ABA 19606): 32 µg/mL
- MIC (ABA UFR151): > 32 µg/mL
- MIC (ABA UFR152): 32 µg/mL
- MIC (ABA UFR153): 32 µg/mL
- MIC (ABA UFR156): > 32 µg/mL
- MIC (ABA UFR157): > 32 µg/mL
- MIC (ABA UFR158): > 32 µg/mL
- MIC (ABA UFR159): > 32 µg/mL
- MIC (ABA UFR160): > 32 µg/mL
- MIC (ABA UFR161): > 32 µg/mL
Compound: NCCCn1c2c(sc1=O)C1CN(C2)C(=O)N1OS(=O)(=O)O (centres unmarked) [Example 10, [5-(3-aminopropyl)-4,9-dioxo-3-thia-5,8,10-triaza-tricyclo[6.2.1.0^2,6]undec-2(6)-en-10-yl] hydrogen sulfate]

- MIC (ABA 107292): > 32 µg/mL
- MIC (ABA 19606): > 32 µg/mL
- MIC (ABA UFR151): > 32 µg/mL
- MIC (ABA UFR152): > 32 µg/mL
- MIC (ABA UFR153): > 32 µg/mL
- MIC (ABA UFR156): > 32 µg/mL
- MIC (ABA UFR157): > 32 µg/mL
- MIC (ABA UFR158): > 32 µg/mL
- MIC (ABA UFR159): > 32 µg/mL
- MIC (ABA UFR160): > 32 µg/mL
- MIC (ABA UFR161): > 32 µg/mL
Compound: O=C1N2CC(n3cccn3)=CC(C2)N1OS(=O)(=O)[O-].[Na+] (centres unmarked) [Example 11, sodium (7-oxo-3-pyrazol-1-yl-1,6-diazabicyclo[3.2.1]oct-3-en-6-yl) sulfate]
